Experimental data taken from patent publication US10954305B2 (Immunomedics, Inc., priority 2016, dated 2021).

How the values were obtained:
p53 in BxPC-3 and Calu-3 = assay: p53 expression; type: cell-based, human
Description: In addition, p53 expression in cells exposed to the ADC was higher in both cell lines compared to SN-38 (not shown). […] In terms of later apoptotic events, cleavage of PARP was evident in both cell lines when incubated with either SN-38 or the conjugate (not shown). […] The higher degree of cleavage with free SN-38 over the ADC was consistent with the cytotoxicity findings.

[1] = mouse, in vivo, iv, 200 ug
From the text: ELISA was utilized to determine serum concentrations of total hRS7 IgG by competing for the binding to an anti-hRS7 IgG idiotype antibody with a horseradish peroxidase conjugate of hRS7. […] Pharmacokinetic (PK) parameters were computed by noncompartmental analysis using Phoenix WinNonlin software (version 6.3; Pharsight Corp., Mountainview, Calif.).

BxPC-3 = assay: dsDNA breaks, γH2AX flow cytometry; type: cell-based, human; settings: 20 μg/ml for 30 min
Description: For drug activity testing, BxPC-3 cells were seeded in 6-well plates at 5×10^5 cells/well and held at 37° C. overnight. […] The following morning, cells were trypsinized briefly, spun down, stained with Fixable Viability Stain 450 (BD Biosciences, San Jose, Calif.), washed with 1% BSA-PBS, and then fixed in 4% formalin for 15 min, washed again and permeabilized in 0.15% Triton-X100 in PBS for another 15 min. After washing twice with 1% BSA-PBS, cells were incubated with mouse anti-γH2AX-AF488 (EMD Millipore Corporation, Temecula, Calif.) for 45 min at 4° C. The signal intensity of γH2AX was measured by flow cytometry using a BD FACSCanto (BD Biosciences, San Jose, Calif.).

COLO 205 tumors = assay: COLO 205 xenograft therapy; settings: 0.4 mg/kg, q4dx8; 28-day treatment period
Description: NCr female athymic nude (nu/nu) mice, 4 to 8 weeks old, and male Swiss-Webster mice, 10 weeks old, were purchased from Taconic Farms. […] Tumor volume (TV) was determined by measurements in 2 dimensions using calipers, with volumes defined as: L×w^2/2, where L is the longest dimension of the tumor and w is the shortest. […] This dosing frequency reflected a consideration of the conjugate's serum half-life in vitro, to allow a more continuous exposure to the ADC.

Capan-1 xenografts = assay: combined radioimmunotherapy and ADC, Capan-1 xenograft; type: in vivo, nude mice
From the text: The present study examined combinations of ^90Y-hPAM4 IgG with RS7-SN-38 in nude mice bearing 0.35 cm^3 subcutaneous xenografts of the human pancreatic cancer cell line, Capan-1. […] These studies provide the first evidence that combined radioimmunotherapy and ADC enhances efficacy at safe doses.

MDA-MB-468 = assay: ADCC, LDH-release assay; type: cell-based, human; settings: 33.3 nM, E:T 50:1
Description: Briefly, target cells (MDA-MB-468, NIH:OVCAR-3, or BxPC-3) were plated at 1×10^4 cells/well in a 96-well, black, flat-bottom plate and incubated overnight. The next day, peripheral blood mononuclear effector cells (PBMCs) were freshly isolated from a donor and added to assigned wells on the reaction plate at an E:T ratio of 50:1. Acquisition of human PBMCs was done under the approval of the New England Institutional Review Board (Newton, Mass.). Test reagents were added to their assigned wells at a final concentration of 33.3 nM. One set of wells received ADCC assay medium alone for background control and another set of wells received cells alone plus TritonX100 for maximum cells lysis control. The plate was incubated for 4 h at 37° C. After 4 h, target cell lysis was assessed by a homogenous fluorometric LDH release assay (Cyto Tox-One Homogenous Membrane Integrity Assay; Promega, Cat. G7891).
The plates were read (544 nm-590 nm) using an Envision plate reader (PerkinElmer LAS, Inc.; Shelton, Conn.). Data were analyzed by Microsoft Excel. Percent specific lysis was calculated as follows: […]

[2] = molecular target: T1, Trop-2 on multiple cell lines (Homo sapiens, UniProt P09758); assay: in vitro cell binding
T1 construct: endogenous in cells; host or cells: human solid tumour cell lines
T1 sequence (P09758 27-323): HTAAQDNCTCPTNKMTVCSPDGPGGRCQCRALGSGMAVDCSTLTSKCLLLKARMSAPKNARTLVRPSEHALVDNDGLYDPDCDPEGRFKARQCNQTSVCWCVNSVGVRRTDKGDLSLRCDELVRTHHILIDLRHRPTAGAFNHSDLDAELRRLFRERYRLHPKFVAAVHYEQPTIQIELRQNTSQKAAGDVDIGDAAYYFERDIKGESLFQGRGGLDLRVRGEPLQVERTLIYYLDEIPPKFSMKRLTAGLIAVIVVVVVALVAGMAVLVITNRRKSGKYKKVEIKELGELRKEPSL
Description: LumiGLO Chemiluminescent Substrate System (KPL, Gaithersberg, Md.) was used to detect antibody binding to cells. Briefly, cells were plated into a 96 black-well, flat-clear-bottom plate overnight. Antibodies were serially diluted 1:2 and added in triplicate, yielding a concentration range from 0.03 to 66.7 nM. After incubating for 1 h at 4° C., the media was removed and the cells washed with fresh cold media followed by the addition of a 1:20,000 dilution of goat-antihuman horseradish peroxidase-conjugated secondary antibody (Jackson Immunoresearch, West Grove, Pa.) for 1 h at 4° C. The plates were again washed before the addition of the LumiGLO reagent. Plates were read for luminescence using an Envision plate reader (Perkin Elmer, Boston Mass.). Data were analyzed by non-linear regression to determine the equilibrium dissociation constant (KD). Statistical comparisons of KD-values were made with Prism GraphPad Software (v4.03) (Advanced Graphics Software, Inc.; Encinitas, Calif.) using an F-Test on the best-fit curves for the data. Significance was set at P<0.05.

NCI-N87-S-120 tumors = assay: SN-38-resistant xenograft therapy; settings: IMMU-132 0.5 mg twice weekly ×4 weeks; irinotecan 40 mg/kg q2dx5
Description: Mice were euthanized once tumors grew to >1.0 cm^3 in size.
NCr female athymic nude (nu/nu) mice, 4 weeks old, were purchased from Taconic Farms. […] Tumor volume (TV) was determined by measurements in two dimensions using calipers, with volumes defined as: L×w^2/2, where L is the longest dimension of the tumor and w the shortest. […] Control mice received each agent alone. […] Mice were euthanized and deemed to have succumbed to disease once tumors grew to >1.0 cm^3 in size.

Row | Substance | time to upregulation of p53 (p53 in BxPC-3 and Calu-3) [h] | alpha half-life, hRS7 IgG [1] | beta half-life, hRS7 IgG [1] [h] | Mean Fluorescence Intensity (γH2AX) (BxPC-3) | Percent Positive (γH2AX) (BxPC-3) [%] | tumor volume (TV) (COLO 205 tumors) [cm^3] | anti-tumor activity of unconjugated antibody (Capan-1 xenografts; given alone) | specific lysis (MDA-MB-468) [%] | KD [2] | MRT, carrier hRS7 antibody [1] [days] | half-life, intact conjugate [1] [h] | mice tumor-free after 20 weeks (Capan-1 xenografts; ADC alone) | survival benefit (NCI-N87-S-120 tumors)
1 | hRS7 IgG | 48 | approximately 3 h | ~200 | 2297 ± 18 | 13.0 ± 0.6 | 1.77±0.93 | Neither unconjugated hPAM4 nor hRS7 antibodies had anti-tumor activity when given alone | 29.8±2.6 | in the sub-nanomolar range |  |  |  | 
2 | IMMU-132 | ≤ 24 | approximately 3 h | ~200 | 5349 ± 234 |  |  |  | 8.6±2.6 | in the sub-nanomolar range | ~12.5 | 11 | 1 of 10 | no significant survival benefit
